Laboratory results published in US11384159B2, “B-1,3-1,6-glucan powder, glucan-containing composition, method for producing B-1,3-1,6-glucan powder, inclusion complex, method for producing inclusion complex, and method for recovering guest molecule” (MITSUBISHI GAS CHEMICAL COMPANY, INC., priority 2017, dated 2022).

Assay: Inclusion of poorly water-soluble substance (curcumin): absorbance of supernatant at 405 nm
Format: physicochemical
Details: 0.002 mol/L monomer glucose; curcumin in acetone, 1 vol. % acetone; 3 hours, 25° C.; after centrifugation
Description: In order to examine the change in characteristics of centrifugally regenerated β-1,3-1,6-glucan in association with powder formation, the envelopment and solubilizing capacity of the centrifugally regenerated β-1,3-1,6-glucan with respect to poorly water-soluble substances were compared.
β-1,3-1,6-glucan (lyophilized) derived from Aureobasidium pullulans was used as the centrifugally regenerated β-1,3-1,6-glucan powder, and curcumin (available from Tokyo Chemical Industry Co., Ltd., catalog number: 00435) was used as the poorly water-soluble substance.
The centrifugally regenerated β-1,3-1,6-glucan powder was dissolved in distilled water at a concentration of 1.0% by mass, and the glucose concentration was calculated through the phenol-sulfuric acid method, after which the solution was diluted and used. […]
Each centrifugally regenerated β-1,3-1,6-glucan solution having a monomer glucose concentration adjusted to 0.002 mol/L was prepared at an amount of 1 mL each, and an acetone solution of curcumin adjusted to a concentration of 0.05 mol/L was added such that the final concentration of acetone was 1 vol. %. […] Centrifugation (KUBOTA3740 (available from Kubota Manufacturing Co., Ltd.), 14000 G, 5 minutes) was carried out, the insoluble matter was removed, and the absorbance of the supernatant at a wavelength of 405 nm was compared. […]

absorbance (wavelength of 405 nm) originating from the curcumin in the supernatant: 0.045
Structure (SMILES): COc1cc(/C=C/C(=O)CC(=O)/C=C/c2ccc(O)c(OC)c2)ccc1O [curcumin]
